Read-outs that look alike come from different tables or passages of the source. Marks after values point to notes of the source that are not given here.
How the values were obtained:
E. coli [1] = conditions: cited from earlier work; for Cell adhesion Reduction (%): (compound − control) × 100 / control, negative = reduction; for anti-biofilm activity (cell adhesion): at the concentrations tested by Catto et al. (0.183-1830 μM)
E. coli [2] = conditions: cited from earlier work; for Planktonic growth A600/min (×10^−3): LB medium, 30° C., 24 hours; for Planktonic growth Reduction (%): (compound − control) × 100 / control, negative = reduction; for biocidal effect: at the concentrations tested by Catto et al. (0.183-1830 μM)
Alternaria alternata = experiment: Post-harvest preservation of capsicums; assay type: in vivo; conditions: capsicums sprayed twice, 10° C., followed 25 days, triplicate
Protocol: To investigate if zosteric acid and/or coumaric acid can protect fruit and vegetables against post-harvest infection with different fungi, zosteric and coumaric acids fungicidal effect was tested in capsicums and lemons infected with Alternaria alternata and Penicillium digitatum, respectively. The tests were performed by acquiring the relevant fruit and vegetables from the local supermarket. Both fruit and vegetables were bought as organic produce to ensure a minimum of pesticides had already been applied. […] Each application treatment was performed in triplicate on three separate pieces of produce. After treatment, the produce was allowed to dry in a sterile laminar flow cabinet followed by a second round of application and drying. The produce was then inoculated with the relevant fungal spores using a grafting stick. […] The inoculated produce was subsequently placed in […] plastic bags to prevent contamination with other organisms and to prevent the produce from drying out due to air circulation in the incubator. The wrapped capsicums and lemons were placed at 10° C. and the fungal growth followed by measuring the diameter of the growth from the point of inoculation for 25 days.

[3] = system: European grapes (Vitis vinifera); experiment: Phytotoxicity evaluation in the grapevine downy mildew trial; conditions: 5% treatment, Example 9 trial

Question: Which results are given for O=C(O)/C=C/c1ccc(OS(=O)(=O)O)cc1 [Trans zosteric acid, trans-zosteric acid]?
Answer: Cell adhesion Reduction (%) (E. coli [1]; 0.183 μM): 44.59%; Cell adhesion N. adhered cells (×10^7) (E. coli [1]; 0.183 μM): 2.77 ± 0.17^d ×10^7; Cell adhesion Reduction (%) (E. coli [1]; 1.83 μM): −19.76%; Cell adhesion N. adhered cells (×10^7) (E. coli [1]; 1.83 μM): 1.54 ± 0.29^c ×10^7; Cell adhesion Reduction (%) (E. coli [1]; 18.3 μM): −19.34%; Cell adhesion N. adhered cells (×10^7) (E. coli [1]; 18.3 μM): 1.55 ± 0.19^c ×10^7; Cell adhesion Reduction (%) (E. coli [1]; 183 μM): −27.67%; Cell adhesion N. adhered cells (×10^7) (E. coli [1]; 183 μM): 1.39 ± 0.13^c ×10^7; Cell adhesion Reduction (%) (E. coli [1]; 1830 μM): −70.56%; Cell adhesion N. adhered cells (×10^7) (E. coli [1]; 1830 μM): 0.56 ± 0.12^a ×10^7; concentrations at which anti-biofilm efficacy is shown (E. coli [1]; Catto et al., table 1): > 1.83 µM; anti-biofilm activity (cell adhesion) (E. coli [1]; listed as trans-isomer of zosteric acid): highly effective; Planktonic growth A600/min (×10^−3) (E. coli [2]; 0.183 μM): 1.32 ± 0.06^a A600/min (×10^−3); Planktonic growth Reduction (%) (E. coli [2]; 0.183 μM): 2.86%; Planktonic growth A600/min (×10^−3) (E. coli [2]; 1.83 μM): 1.31 ± 0.04^a A600/min (×10^−3); Planktonic growth Reduction (%) (E. coli [2]; 1.83 μM): 1.76%; Planktonic growth A600/min (×10^−3) (E. coli [2]; 18.3 μM): 1.29 ± 0.04^a A600/min (×10^−3); Planktonic growth Reduction (%) (E. coli [2]; 18.3 μM): 0.11%; Planktonic growth A600/min (×10^−3) (E. coli [2]; 183 μM): 1.30 ± 0.04^a A600/min (×10^−3); Planktonic growth Reduction (%) (E. coli [2]; 183 μM): 1.07%; Planktonic growth A600/min (×10^−3) (E. coli [2]; 1830 μM): 1.30 ± 0.04^a A600/min (×10^−3); Planktonic growth Reduction (%) (E. coli [2]; 1830 μM): 1.21%; biocidal effect (E. coli [2]): no biocidal effect

Question: With O=C(O)/C=C/c1ccc(O)cc1 [Trans-coumaric acid, trans-coumaric acid] as the compound, how does the “Cell adhesion Reduction (%)” value (E. coli [1]; 0.183 μM) read?
Answer: The value was 19.37%.

Question: And the “Cell adhesion N. adhered cells (×10^7)” value (E. coli [1]; 0.183 μM)?
Answer: Its value is 2.29 ± 0.16b ×10^7.

Question: What about the “Cell adhesion Reduction (%)” value (E. coli [1]; 1.83 μM) of the same compound?
Answer: Its value is −46.05%.

Question: What about the “Cell adhesion N. adhered cells (×10^7)” value (E. coli [1]; 1.83 μM) of the same compound?
Answer: Its value is 1.03 ± 0.14ce ×10^7.

Question: And the “Cell adhesion Reduction (%)” value (E. coli [1]; 18.3 μM)?
Answer: Its value is −25.80%.

Question: What about the “Cell adhesion N. adhered cells (×10^7)” value (E. coli [1]; 18.3 μM) of the same compound?
Answer: Its value is 1.42 ± 0.24de ×10^7.

Question: What about the “Cell adhesion Reduction (%)” value (E. coli [1]; 183 μM) of the same compound?
Answer: Its value is −22.36%.

Question: What about the “Cell adhesion N. adhered cells (×10^7)” value (E. coli [1]; 183 μM) of the same compound?
Answer: Its value is 1.49 ± 0.14de ×10^7.

Question: What about the “Cell adhesion Reduction (%)” value (E. coli [1]; 1830 μM) of the same compound?
Answer: Its value is −36.38%.

Question: What about the “Cell adhesion N. adhered cells (×10^7)” value (E. coli [1]; 1830 μM) of the same compound?
Answer: Its value is 1.22 ± 0.27cde ×10^7.

Question: What about the “anti-biofilm activity (cell adhesion)” value (E. coli [1]) of the same compound?
Answer: Its value is “displays both biocidal and antibiofilm effect”.

Question: What about the “Planktonic growth A600/min (×10^−3)” value (E. coli [2]; 0.183 μM) of the same compound?
Answer: Its value is 1.31 ± 0.03ab A600/min (×10^−3).

Question: What about the “Planktonic growth Reduction (%)” value (E. coli [2]; 0.183 μM) of the same compound?
Answer: The value was 2.06%.

Question: And the “Planktonic growth A600/min (×10^−3)” value (E. coli [2]; 1.83 μM)?
Answer: Its value is 1.26 ± 0.04abc A600/min (×10^−3).

Question: What about the “Planktonic growth Reduction (%)” value (E. coli [2]; 1.83 μM) of the same compound?
Answer: The value was −1.72%.

Question: What about the “Planktonic growth A600/min (×10^−3)” value (E. coli [2]; 18.3 μM) of the same compound?
Answer: Its value is 1.23 ± 0.02abc A600/min (×10^−3).

Question: What about the “Planktonic growth Reduction (%)” value (E. coli [2]; 18.3 μM) of the same compound?
Answer: Its value is −3.99%.

Question: What about the “Planktonic growth A600/min (×10^−3)” value (E. coli [2]; 183 μM) of the same compound?
Answer: The value was 1.23 ± 0.06abc A600/min (×10^−3).

Question: What about the “Planktonic growth Reduction (%)” value (E. coli [2]; 183 μM) of the same compound?
Answer: Its value is −3.87%.

Question: What about the “Planktonic growth A600/min (×10^−3)” value (E. coli [2]; 1830 μM) of the same compound?
Answer: The value was 0.97 ± 0.04e A600/min (×10^−3).

Question: And the “Planktonic growth Reduction (%)” value (E. coli [2]; 1830 μM)?
Answer: Its value is −24.17%.

Question: What about the biocidal effect (E. coli [2]) of the same compound?
Answer: The biocidal effect was “displays both biocidal and antibiofilm effect”.

Question: Which results are given for O=C(O)/C=C\c1ccc(OS(=O)(=O)O)cc1 [Cis zosteric acid, cis-zosteric acid]?
Answer: Cell adhesion Reduction (%) (E. coli [1]; 0.183 μM): 98.02%; Cell adhesion N. adhered cells (×10^7) (E. coli [1]; 0.183 μM): 3.79 ± 0.61^c ×10^7; Cell adhesion Reduction (%) (E. coli [1]; 1.83 μM): 92.49%; Cell adhesion N. adhered cells (×10^7) (E. coli [1]; 1.83 μM): 3.69 ± 0.41^c ×10^7; Cell adhesion Reduction (%) (E. coli [1]; 18.3 μM): 84.50%; Cell adhesion N. adhered cells (×10^7) (E. coli [1]; 18.3 μM): 3.54 ± 0.20^c ×10^7; Cell adhesion Reduction (%) (E. coli [1]; 183 μM): 9.90%; Cell adhesion N. adhered cells (×10^7) (E. coli [1]; 183 μM): 2.11 ± 0.14^bd ×10^7; Cell adhesion Reduction (%) (E. coli [1]; 1830 μM): 124.16%; Cell adhesion N. adhered cells (×10^7) (E. coli [1]; 1830 μM): 4.30 ± 1.01^c ×10^7; anti-biofilm activity (cell adhesion) (E. coli [1]): no biocidal nor anti-biofilm activity; anti-biofilm activity (cell adhesion) (E. coli [1]; listed as cis-isomer of zosteric acid): no activity; Planktonic growth A600/min (×10^−3) (E. coli [2]; 0.183 μM): 1.31 ± 0.13^a A600/min (×10^−3); Planktonic growth Reduction (%) (E. coli [2]; 0.183 μM): 2.28%; Planktonic growth A600/min (×10^−3) (E. coli [2]; 1.83 μM): 1.31 ± 0.01^a A600/min (×10^−3); Planktonic growth Reduction (%) (E. coli [2]; 1.83 μM): 1.66%; Planktonic growth A600/min (×10^−3) (E. coli [2]; 18.3 μM): 1.31 ± 0.03^a A600/min (×10^−3); Planktonic growth Reduction (%) (E. coli [2]; 18.3 μM): 2.24%; Planktonic growth A600/min (×10^−3) (E. coli [2]; 183 μM): 1.24 ± 0.03^a A600/min (×10^−3); Planktonic growth Reduction (%) (E. coli [2]; 183 μM): −3.39%; Planktonic growth A600/min (×10^−3) (E. coli [2]; 1830 μM): 1.22 ± 0.03^a A600/min (×10^−3); Planktonic growth Reduction (%) (E. coli [2]; 1830 μM): −4.98%; biocidal effect (E. coli [2]): no biocidal nor anti-biofilm activity

Question: What does the source list for O=C(O)/C=C/c1ccc(O)cc1 [coumaric acid]?
Answer: time after inoculation until A. alternata growth was displayed (Alternaria alternata): 25 days; phytotoxicity [3]: 23.5%
